# Laboratory results as given in US20040043403A1, “Process for determining the biological activity of epidermal growth factor receptor tyrosine kinase inhibitors” (priority 2000, published 2004).
# Columns and labels:
# Format in all cases: cell-based, human
# MDA-MB468 [1] = test: Real time RT-PCR gene expression in MDA-MB468 cells; settings: MDA-MB468, 3 μM, 24 h; relative to DMSO-treated NCI-H520 calibrator
# Protocol: (§1) 20 million tissue culture cells (about 80% confluent) or 200 million WBCs are incubated for 2 or 24 h in culture medium containing 3 μM of an EGFR tyrosine kinase inhibitor or 0.03% DMSO. Total RNA from cell pellet is isolated using the RNeasy kit (Qiagen). mRNA is isolated using the oligotex mRNA purification kit (Qiagen). The quality of the obtained mRNA is tested by real time RT-PCR using beta-Actin primers (PE Applied Biosystems) with an amplicon size of 300 base pairs (bp). The total RNA is used as a reference to calculate the amount of mRNA-enrichment in the oligotex purified samples. The primers and probes are designed from mRNA sequences within the coding region or in the 3′ untranslated region (Table 2). For real time RT-PCR, RNA concentrations between 1 and 50 ng/reaction are used to obtain signals between 15-35 cycles. For each RNA preparation RT-PCR reactions are performed with and without reverse transcriptase to check for genomic DNA contamination. In all RNA samples tested, genomic DNA contamination is less than 1%. To normalize for variability in the initial concentration and quality of the total RNA, Glyceraldehyde-3-phosphate dehydrogenase (GAPDH) is used as an endogenous reference in all quantification experiments. For RT-PCR a one step, two-enzyme system is chosen. The TaqMan PCR Core Reagent Kit (PE #N808-0228) plus the reverse transcriptase MuLV (PE Biosystems # N808-0018) and RNase inhibitor (Roche Diagnostics # 799 025) are mixed as described in the manufacturers protocol. Triplicate measurements are done for target and for reference reactions. […] RT-PCR reactions are done with RNA concentrations of 2.5, 5, 10, 20, 40 and 80 ng per reaction. […] The ΔCT value is determined by subtracting the average reference CT values from the average target CT values of the three measurements. Relative quantification is performed in triplicates, reference and target, using the RT-PCR protocol described above. […] Expression levels for the three genes, calculated relative to NCI-H520, show big differences between the various cell types (Table 5). […]
# NCI-H596 = test: Real time RT-PCR gene expression in NCI-H596 cells; settings: NCI-H596, 3 μM, 24 h; relative to DMSO-treated NCI-H520 calibrator
# Protocol: as §1
# MDA-MB468 [2] = test: Western blot of clusterin induction in MDA-MB468 cells; settings: MDA-MB468 cells (high levels of EGFR), 300 nM, 24 h, vs 0.03% DMSO
# Protocol: An EGFR tyrosine kinase inhibitor is dissolved in DMSO to obtain a 10 mM stock solution. The stock solution is further diluted in culture medium to final concentrations of 10 nM to 3 μM. 3.5 million cells/100 mm dish/12 ml culture medium are incubated for 24 h in 5% CO2 at 37° C. The medium is replaced with medium containing the EGFR tyrosine kinase inhibitor or DMSO. Cells are incubated for 4 to 32 h. The frozen pellets are lysed in 500 μl of lysis buffer (50 mM Tris-HCl pH 7.5, 1% Sodium Dodecyl Sulfate (SDS)). To shear genomic DNA, the cell lysates are processed in a FastPrep instrument for 20 sec at a speed rating of 4, using the green […] tubes (Bio101#6040-6010). Protein concentrations are determined according to the PIERCE-method (BCA Protein Assay, Reagent A and B). Protein concentration of lysates is adjusted to 1 μg/μl with lysis buffer. 4 parts of cell lysates are mixed with 1 part of 5 fold concentrated Laemmli buffer, the lysates are stored at -20° C. 40 μl of cell lysate is heated for 3 min to 95° C. and directly loaded on to 10% or 15% SDS-PAGE gels. The gels are run at 130 V for 90 min under standard conditions. The separated proteins are semi-dry blotted on to a PVDF membrane (Immobilon-P, Millipore #IPVH 202 00) for 70 min with 45 mA per blot. […]
structure (smiles),measurement,setting,value
"C[C@@H](Nc1ncnc2[nH]c(-c3ccc(O)cc3)cc12)c1ccccc1 [COMPOUND A, (R)-6-(4-hydroxy-phenyl)-4-[(1-phenyl-ethyl)-amino]-7H-pyrrolo[2,3-d]pyrimidine]",Relative Clusterin expression,MDA-MB468 [1],32.60 n-fold
same,Relative TRAIL expression,MDA-MB468 [1],2.89 n-fold
same,Relative VAC-beta expression,MDA-MB468 [1],26.60 n-fold
same,Relative Clusterin expression,NCI-H596,44.12 n-fold
same,Relative TRAIL expression,NCI-H596,81.76 n-fold
same,Relative VAC-beta expression,NCI-H596,102.30 n-fold
same,"Clusterin induction, Western blot (FIG. 4)",MDA-MB468 [2],strong clusterin expression signals
